# According to patent publication US8901118B2, “Compounds and methods for kinase modulation, and indications therefor” (Plexxikon Inc., priority 2010, dated 2014):
# pIC50: −log10 of the molar value.
# Molecular target: c-Kit kinase (Homo sapiens, UniProt P10721)
# Experiment: c-Kit kinase biochemical activity assay (AlphaScreen, biotin-(E4Y)10 phosphorylation)
# Conditions: 100 μM ATP; read-out: Biochemical Inhibition IC50 Kit
# How it was run: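 Phosphorylation of 30 nM biotin-(E4Y)10 by c-Kit (0.75 ng per reaction) with 100 µM ATP in HEPES pH 7.5 buffer with Mg2+/Mn2+, 5% DMSO, 1 h at room temperature; 8-point 1:2 compound dilutions. AlphaScreen detection with streptavidin donor and PY20 acceptor beads after EDTA stop. IC50 from signal versus concentration.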
# Chain of c-Kit kinase (P10721 26-976): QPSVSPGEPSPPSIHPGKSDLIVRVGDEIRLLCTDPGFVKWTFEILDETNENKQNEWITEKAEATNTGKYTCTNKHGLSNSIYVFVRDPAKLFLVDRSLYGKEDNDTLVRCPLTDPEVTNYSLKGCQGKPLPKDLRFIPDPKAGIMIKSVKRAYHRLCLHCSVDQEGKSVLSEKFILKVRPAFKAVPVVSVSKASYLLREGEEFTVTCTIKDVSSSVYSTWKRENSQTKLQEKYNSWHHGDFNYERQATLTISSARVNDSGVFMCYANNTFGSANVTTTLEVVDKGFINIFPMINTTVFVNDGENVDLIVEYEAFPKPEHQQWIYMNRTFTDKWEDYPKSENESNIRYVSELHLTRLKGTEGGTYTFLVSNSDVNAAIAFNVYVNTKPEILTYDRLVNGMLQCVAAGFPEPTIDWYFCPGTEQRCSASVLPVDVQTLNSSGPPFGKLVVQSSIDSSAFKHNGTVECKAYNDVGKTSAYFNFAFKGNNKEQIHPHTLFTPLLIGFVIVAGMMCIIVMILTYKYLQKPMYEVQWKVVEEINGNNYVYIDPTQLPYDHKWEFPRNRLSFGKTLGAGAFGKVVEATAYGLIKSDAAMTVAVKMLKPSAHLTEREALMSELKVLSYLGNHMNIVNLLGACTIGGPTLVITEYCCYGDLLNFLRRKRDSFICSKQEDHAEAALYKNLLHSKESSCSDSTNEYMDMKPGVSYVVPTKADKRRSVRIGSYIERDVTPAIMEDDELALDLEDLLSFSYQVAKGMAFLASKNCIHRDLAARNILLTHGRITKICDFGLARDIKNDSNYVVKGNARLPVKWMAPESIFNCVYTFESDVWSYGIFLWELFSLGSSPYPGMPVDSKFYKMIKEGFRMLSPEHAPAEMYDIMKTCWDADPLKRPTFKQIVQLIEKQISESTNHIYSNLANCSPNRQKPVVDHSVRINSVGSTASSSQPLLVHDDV
row,SMILES,pIC50
1,"Cc1cnc2[nH]cc(Cc3cnc(Nc4ccc(S(C)(=O)=O)cc4)nc3)c2c1 [Compound P-3034, (4-Methanesulfonyl-phenyl)-[5-(5-methyl-1H-pyrrolo[2,3-b]pyridin-3-ylmethyl)-pyrimidin-2-yl]-amine]",> 7.00
2,"CCn1cc(Nc2ncc(Cc3c[nH]c4ncc(C)cc34)cn2)cn1 [Compound P-3036, (1-Ethyl-1H-pyrazol-4-yl)-[5-(5-methyl-1H-pyrrolo[2,3-b]pyridin-3-ylmethyl)-pyrimidin-2-yl]-amine]",> 7.00
3,"CCOc1ccc(Nc2ccc(Cc3c[nH]c4ncnc(C5CC5)c34)c(F)n2)cn1 [Compound P-4026, [5-(4-Cyclopropyl-7H-pyrrolo[2,3-d]pyrimidin-5-ylmethyl)-6-fluoro-pyridin-2-yl]-(6-ethoxy-pyridin-3-yl)-amine]",> 6.00
4,"Fc1cccc(Nc2ncc(Cc3c[nH]c4ncc(Cl)cc34)cn2)c1 [Compound P-3017, [5-(5-Chloro-1H-pyrrolo[2,3-b]pyridin-3-ylmethyl)-pyrimidin-2-yl]-(3-fluoro-phenyl)-amine]",> 6.00
5,"Clc1cnc2[nH]cc(Cc3cnc(NC4CCCC4)nc3)c2c1 [Compound P-3003, [5-(5-Chloro-1H-pyrrolo[2,3-b]pyridin-3-ylmethyl)-pyrimidin-2-yl]-cyclopentyl-amine]",< 6.00
6,"COc1ccc(Nc2ncc(Cc3c[nH]c4ncc(C)cc34)cn2)cc1F [Compound P-3023, (3-Fluoro-4-methoxy-phenyl)-[5-(5-methyl-1H-pyrrolo[2,3-b]pyridin-3-ylmethyl)-pyrimidin-2-yl]-amine]",> 7.00
7,"Cc1cnc2[nH]cc(Cc3cnc(Nc4cc(C(C)(C)C)n[nH]4)nc3)c2c1 [Compound P-3029, (5-tert-Butyl-2H-pyrazol-3-yl)-[5-(5-methyl-1H-pyrrolo[2,3-b]pyridin-3-ylmethyl)-pyrimidin-2-yl]-amine]",> 6.00
8,"CCOc1ncnc2[nH]cc(Cc3ccc(Nc4cccnc4)nc3F)c12 [Compound P-4021, [5-(4-Ethoxy-7H-pyrrolo[2,3-d]pyrimidin-5-ylmethyl)-6-fluoro-pyridin-2-yl]-pyridin-3-yl-amine]",> 6.00
9,"Cc1cnc2[nH]cc(Cc3cnc(Nc4cc(-c5ccc(F)cc5)n[nH]4)nc3)c2c1 [Compound P-3028, [5-(4-Fluoro-phenyl)-2H-pyrazol-3-yl]-[5-(5-methyl-1H-pyrrolo[2,3-b]pyridin-3-ylmethyl)-pyrimidin-2-yl]-amine]",> 6.00
10,"CCOc1ccc(Nc2ccc(C(=O)c3c[nH]c4ncnc(C)c34)c(F)n2)cn1 [Compound P-4032, [6-(6-Ethoxy-pyridin-3-ylamino)-2-fluoro-pyridin-3-yl]-(4-methyl-7H-pyrrolo[2,3-d]pyrimidin-5-yl)-methanone]",> 7.00
11,"CCOc1ccc(Nc2ccc(C(=O)c3c[nH]c4ncnc(C5CC5)c34)c(F)n2)cn1 [Compound P-4027, (4-Cyclopropyl-7H-pyrrolo[2,3-d]pyrimidin-5-yl)-[6-(6-ethoxy-pyridin-3-ylamino)-2-fluoro-pyridin-3-yl]-methanone]",> 7.00
12,"Clc1cnc2[nH]cc(Cc3cnc(NC4CC4)nc3)c2c1 [Compound P-3005, [5-(5-Chloro-1H-pyrrolo[2,3-b]pyridin-3-ylmethyl)-pyrimidin-2-yl]-cyclopropyl-amine]",< 6.00
13,"Cc1cnc2[nH]cc(Cc3cnc(Nc4cc(OC(C)C)n[nH]4)nc3)c2c1 [Compound P-3038, (5-Isopropoxy-2H-pyrazol-3-yl)-[5-(5-methyl-1H-pyrrolo[2,3-b]pyridin-3-ylmethyl)-pyrimidin-2-yl]-amine]",> 6.00
14,"Cc1cnc2[nH]cc(Cc3cnc(Nc4cc(C(F)(F)F)n[nH]4)nc3)c2c1 [Compound P-3037, [5-(5-Methyl-1H-pyrrolo[2,3-b]pyridin-3-ylmethyl)-pyrimidin-2-yl]-(5-trifluoromethyl-2H-pyrazol-3-yl)-amine]",> 6.00
15,"CCOc1ccc(Nc2ccc(C(=O)c3c[nH]c4ncc(C)cc34)c(F)n2)cn1 [Compound P-3045, [6-(6-ethoxy-pyridin-3-ylamino)-2-fluoro-pyridin-3-yl]-(5-methyl-1H-pyrrolo[2,3-b]pyridin-3-yl)-methanone]",> 6.00
16,"Cc1cnc2[nH]cc(Cc3cnc(Nc4ccc(C(O)(C(F)(F)F)C(F)(F)F)cc4)nc3)c2c1 [Compound P-3031, 1,1,1,3,3,3-Hexafluoro-2-{4-[5-(5-methyl-1H-pyrrolo[2,3-b]pyridin-3-ylmethyl)-pyrimidin-2-ylamino]-phenyl}-propan-2-ol]",> 7.00
17,"COc1cc(Nc2ncc(Cc3c[nH]c4ncc(C)cc34)cn2)ccc1F [Compound P-3022, (4-Fluoro-3-methoxy-phenyl)-[5-(5-methyl-1H-pyrrolo[2,3-b]pyridin-3-ylmethyl)-pyrimidin-2-yl]-amine]",> 7.00

# The next lines start with the values.
row,pIC50,SMILES
1,> 7.00,"Cc1cnc2[nH]cc(Cc3cnc(Nc4ccc(C(C)(C)C)cc4)nc3)c2c1 [Compound P-3030, (4-tert-Butyl-phenyl)-[5-(5-methyl-1H-pyrrolo[2,3-b]pyridin-3-ylmethyl)-pyrimidin-2-yl]-amine amine]"
2,> 8.00,"COc1ccc(Nc2ncc(Cc3c[nH]c4ncc(C)cc34)cn2)cc1 [Compound P-3021, (4-Methoxy-phenyl)-[5-(5-methyl-1H-pyrrolo[2,3-b]pyridin-3-ylmethyl)-pyrimidin-2-yl]-amine]"
3,> 8.00,"COc1ccc(Nc2ncc(Cc3c[nH]c4ncc(C)cc34)cn2)cn1 [Compound P-3020, (6-Methoxy-pyridin-3-yl)-[5-(5-methyl-1H-pyrrolo[2,3-b]pyridin-3-ylmethyl)-pyrimidin-2-yl]-amine]"
4,> 7.00,"CCOc1ncnc2[nH]cc(Cc3ccc(Nc4ccc(Br)nc4)nc3F)c12 [Compound P-4020, (6-Bromo-pyridin-3-yl)-[5-(4-ethoxy-7H-pyrrolo[2,3-d]pyrimidin-5-ylmethyl)-6-fluoro-pyridin-2-yl]-amine]"
5,> 7.00,"Cc1ccc(Nc2ccc(Cc3c[nH]c4ncc(Cl)cc34)c(F)n2)cn1 [Compound P-3042, [5-(5-Chloro-1H-pyrrolo[2,3-b]pyridin-3-ylmethyl)-6-fluoro-pyridin-2-yl]-(6-methyl-pyridin-3-yl)-amine]"
6,> 8.00,"CCCOc1ccc(Nc2ncc(Cc3c[nH]c4ncc(C)cc34)cn2)cc1 [Compound P-3024, [5-(5-Methyl-1H-pyrrolo[2,3-b]pyridin-3-ylmethyl)-pyrimidin-2-yl]-(4-propoxy-phenyl)-amine]"
7,> 7.00,"CCn1ccc(Nc2ncc(Cc3c[nH]c4ncc(C)cc34)cn2)n1 [Compound P-3035, (1-Ethyl-1H-pyrazol-3-yl)-[5-(5-methyl-1H-pyrrolo[2,3-b]pyridin-3-ylmethyl)-pyrimidin-2-yl]-amine]"
8,> 8.00,"CSc1ccc(Nc2ncc(Cc3c[nH]c4ncc(C)cc34)cn2)cc1 [Compound P-3033, [5-(5-Methyl-1H-pyrrolo[2,3-b]pyridin-3-ylmethyl)-pyrimidin-2-yl]-(4-methylsulfanyl-phenyl)-amine]"
9,> 8.00,"CCc1ccc(Nc2ncc(Cc3c[nH]c4ncc(C)cc34)cn2)cc1 [Compound P-3025, (4-Ethyl-phenyl)-[5-(5-methyl-1H-pyrrolo[2,3-b]pyridin-3-ylmethyl)-pyrimidin-2-yl]-amine]"
10,> 8.00,"CCOc1ccc(Nc2ncc(Cc3c[nH]c4ncc(C)cc34)cn2)cc1 [Compound P-3026, (4-Ethoxy-phenyl)-[5-(5-methyl-1H-pyrrolo[2,3-b]pyridin-3-ylmethyl)-pyrimidin-2-yl]-amine]"
